In USRE37421E, “Rapamycin derivatives” (SmithKline Beecham Corporation, priority 1999, dated 2001):

system: Spleen cells from BDF1 female mice; experiment: Mitogenesis Assay for Immunosuppressive Activity (concanavalin A-stimulated spleen cells, 3H-thymidine uptake); type: cell-based; conditions: BDF1 mouse spleen cells, Concanavalin A 5 μg/ml, 72 hours
Protocol: Spleen cells from BDF1 female mice were established in RPMI with 10% fetal calf serum at 5×10^6 /mL. […] Concanavalin A (5μ g/ml)was added as the mitogenic stimulus, and the final volume in the microtiter wells was adjusted to 200μ L with RPMI. Cell cultures were incubated for 72 hours at 37° C. in a 5% CO2 atmosphere and pulsed with 0.5μ Ci ^3 H-thymidine (specific activity […]) for the last 18 hours of the 72 hour culture. The cells were harvested on an automated multiple sample harvester and cell-associated radioactivity counted in a Beckman liquid scintillation counter. The results are expressed as the mean values derived from quadruplicate measurements. Cell viability was determined by trypan blue exclusion after 72 hours of incubation. Compounds to be tested were added to the microtiter plates at the appropriate dilutions prior to the addition of cells.

SMILES	IC50 [nM]
CO[C@H]1C[C@@H]2CC[C@@H](C)[C@@](O)(O2)C(=O)C(=O)N2CCCC[C@H]2C(=O)O[C@H]([C@H](C)C[C@@H]2CC[C@@H](O)[C@H](OC)C2)CC(=O)[C@H](C)/C=C(\C)[C@@H](O)[C@@H](OC)C(O)[C@H](C)C[C@H](C)/C=C/C=C/C=C/1C (single isomer, unassigned) [Ex. 4, isomer 1, 30-Dihydro-rapamycins]	2
CO[C@H]1C[C@@H]2CC[C@@H](C)[C@@](O)(O2)C(O)C(=O)N2CCCC[C@H]2C(=O)O[C@H]([C@H](C)C[C@@H]2CC[C@@H](O)[C@H](OC)C2)CC(=O)[C@H](C)/C=C(\C)[C@@H](O)[C@@H](OC)C(O)[C@H](C)C[C@H](C)/C=C/C=C/C=C/1C (single isomer, unassigned) [Ex. 2, isomer 2, 14,30-Bisdihydrorapamycin]	1 to 10
CO[C@H]1C[C@@H]2CC[C@@H](C)[C@@](O)(O2)C(=O)C(=O)N2CCCC[C@H]2C(=O)O[C@H]([C@H](C)C[C@@H]2CC[C@@H](O)[C@H](OC)C2)CC(=O)[C@H](C)/C=C(\C)[C@@H](O)[C@@H](OC)C(O)[C@H](C)C[C@H](C)/C=C/C=C/C=C/1C (single isomer, unassigned) [Ex. 4, isomer 2, 30-Dihydro-rapamycins]	0.1 to 1

same assay, conditions: Mus musculus, Concanavalin A 5 μg/ml, 72 hours

SMILES	IC50 [nM]
CO[C@H]1C[C@@H]2CC[C@@H](C)[C@@](O)(O2)C(=O)C(=O)N2CCCC[C@H]2C(=O)O[C@H]([C@H](C)C[C@@H]2CC[C@@H](O)[C@H](OC)C2)CC(=O)[C@H](C)/C=C(\C)[C@H]2OC(C)(C)OC([C@H](C)C[C@H](C)/C=C/C=C/C=C/1C)[C@@H]2OC [Ex. 5, 30-Dihydro-Rapamycin-28, 30-Acetonide]	100 to 1000
CO[C@H]1C[C@@H]2CC[C@@H](C)[C@@](O)(O2)C(O)C(=O)N2CCCC[C@H]2C(=O)O[C@H]([C@H](C)C[C@@H]2CC[C@@H](O)[C@H](OC)C2)CC(=O)[C@H](C)/C=C(\C)[C@@H](O)[C@@H](OC)C(=O)[C@H](C)C[C@H](C)/C=C/C=C/C=C/1C (single isomer, unassigned; isomer 14) [Ex. 1, major isomer, 14-Dihydrorapamycin]	10
CO[C@H]1C[C@@H]2CC[C@@H](C)[C@@](OC)(O2)C(O)C(=O)N2CCCC[C@H]2C(=O)O[C@H]([C@H](C)C[C@@H]2CC[C@@H](O)[C@H](OC)C2)CC(=O)[C@H](C)/C=C(\C)[C@@H](O)[C@@H](OC)C(O)[C@H](C)C[C@H](C)/C=C/C=C/C=C/1C (single isomer, unassigned) [Ex. 3, major isomer, 14,30-Bisdihydro-13-O-methylrapamycins]	100 to 1000
CO[C@H]1C[C@@H]2CC[C@@H](C)[C@@](O)(O2)C(O)C(=O)N2CCCC[C@H]2C(=O)O[C@H]([C@H](C)C[C@@H]2CC[C@@H](O)[C@H](OC)C2)CC(=O)[C@H](C)/C=C(\C)[C@@H](O)[C@@H](OC)C(O)[C@H](C)C[C@H](C)/C=C/C=C/C=C/1C (single isomer, unassigned) [Ex. 2, isomer 1, 14,30-Bisdihydrorapamycin]	1 to 10
CO[C@H]1[C@@H](O)[C@H](C)C[C@H](C)/C=C/C=C/C=C(\C)[C@@H](OC)C[C@@H]2CC[C@@H](C)[C@](O)(CC(=O)N3CCCC[C@H]3C(=O)O[C@H]([C@H](C)C[C@@H]3CC[C@@H](O)[C@H](OC)C3)CC(=O)[C@H](C)/C=C(\C)[C@H]1O)O2 [Ex. 6, 14-Desoxo-30 (S) -dihydro-rapamycin]	> 1000
